Test results: ChEMBL document CHEMBL2331530, “Novel 3-O-carbamoyl erythromycin A derivatives (carbamolides) with activity against resistant staphylococcal and streptococcal isolates” (2013)
≈ marks a conversion by molar mass, not a printed value.

Key:
Assay type in all cases: functional
Staphylococcus aureus [1] = assay: Antibacterial activity against methicillin-resistant Staphylococcus aureus 1279-07 harboring cfr gene assessed as growth inhibition
Staphylococcus aureus [2] = assay: Antibacterial activity against macrolides, lincosamides, streptogramin B and methicillin-resistant Staphylococcus aureus 1015-00 assessed as growth inhibition
Streptococcus pneumoniae = assay: Antibacterial activity against macrolides, lincosamides, and streptogramin B-resistant Streptococcus pneumoniae 1243-00 assessed as growth inhibition
Staphylococcus aureus [3] = assay: Antibacterial activity against methicillin-resistant Staphylococcus aureus 1281-07 harboring cfr gene assessed as growth inhibition
[4] = tested on: Staphylococcus epidermidis; assay: Antibacterial activity against macrolides, lincosamides, streptogramin B and methicillin-resistant Staphylococcus epidermidis 1105-00 assessed as growth inhibition
Staphylococcus aureus [5] = assay: Antibacterial activity against methicillin-resistant Staphylococcus aureus 2111-10-USA300 harboring cfr gene assessed as growth inhibition
Staphylococcus aureus [6] = assay: Antibacterial activity against macrolides, lincosamides, streptogramin B and methicillin-resistant Staphylococcus aureus 1609-09 harboring cfr gene assessed as growth inhibition
Staphylococcus aureus [7] = assay: Antibacterial activity against methicillin-resistant Staphylococcus aureus 1279-07-USA300 assessed as growth inhibition
Streptococcus pyogenes = assay: Antibacterial activity against macrolides, lincosamides, and streptogramin B-resistant Streptococcus pyogenes 1304-00 assessed as growth inhibition
Staphylococcus aureus [8] = assay: Antibacterial activity against Staphylococcus aureus ATCC 29213 assessed as growth inhibition

Compound	MIC (Staphylococcus aureus [1]) [µg/mL]	MIC (Staphylococcus aureus [2]) [µg/mL]	MIC (Streptococcus pneumoniae) [µg/mL]	MIC (Staphylococcus aureus [3]) [µg/mL]	MIC [4] [µg/mL]	MIC (Staphylococcus aureus [5]) [µg/mL]	MIC (Staphylococcus aureus [6]) [µg/mL]	MIC (Staphylococcus aureus [7]) [µg/mL]	MIC (Streptococcus pyogenes) [µg/mL]	MIC (Staphylococcus aureus [8]) [µg/mL]
CC[C@H]1OC(=O)[C@H](C)[C@@H](OC(=O)N2CC(C)(C)C[C@@H]2c2ccc(Cl)cc2)[C@H](C)[C@@H](O[C@@H]2O[C@H](C)C[C@H](N(C)C)[C@H]2O)[C@](C)(OC)C[C@@H](C)C(=O)[C@H](C)[C@H]2NC(=O)O[C@@]21C	0.25 (≈ 0.294 µM)	> 64	0.125 (≈ 0.147 µM)	0.25 (≈ 0.294 µM)	64 (≈ 75.3 µM)	0.25 (≈ 0.294 µM)	> 64	0.5 (≈ 0.588 µM)	0.125 (≈ 0.147 µM)	0.25 (≈ 0.294 µM)
CC[C@H]1OC(=O)[C@H](C)[C@@H](OC(=O)N2CCC[C@H]2c2ccccc2)[C@H](C)[C@@H](O[C@@H]2O[C@H](C)C[C@H](N(C)C)[C@H]2O)[C@](C)(OC)C[C@@H](C)C(=O)[C@H](C)[C@H]2NC(=O)O[C@@]21C	> 64	> 64	> 64	0.5 (≈ 0.635 µM)	> 64	0.5 (≈ 0.635 µM)	> 64	> 64	> 64	2 (≈ 2.54 µM)
CC[C@H]1OC(=O)[C@H](C)[C@@H](OC(=O)N2CCC[C@@H]2c2ccccc2)[C@H](C)[C@@H](O[C@@H]2O[C@H](C)C[C@H](N(C)C)[C@H]2O)[C@](C)(OC)C[C@@H](C)C(=O)[C@H](C)[C@H]2NC(=O)O[C@@]21C	> 64	> 64	> 64	0.25 (≈ 0.317 µM)	> 64	> 64	> 64	> 64	> 64	0.5 (≈ 0.635 µM)
CC[C@H]1OC(=O)[C@H](C)[C@@H](OC(=O)N2CCCC2)[C@H](C)[C@@H](O[C@@H]2O[C@H](C)C[C@H](N(C)C)[C@H]2O)[C@](C)(OC)C[C@@H](C)C(=O)[C@H](C)[C@H]2NC(=O)O[C@@]21C	16 (≈ 22.5 µM)	4 (≈ 5.62 µM)	0.5 (≈ 0.702 µM)	32 (≈ 45 µM)	1 (≈ 1.4 µM)	16 (≈ 22.5 µM)	16 (≈ 22.5 µM)	2 (≈ 2.81 µM)	0.5 (≈ 0.702 µM)	4 (≈ 5.62 µM)
CC[C@H]1OC(=O)[C@H](C)[C@@H](OC(=O)N2CC(C)(C)C[C@@H]2c2cccc(Cl)c2Cl)[C@H](C)[C@@H](O[C@@H]2O[C@H](C)C[C@H](N(C)C)[C@H]2O)[C@](C)(OC)C[C@@H](C)C(=O)[C@H](C)[C@H]2NC(=O)O[C@@]21C	0.5 (≈ 0.565 µM)	32 (≈ 36.2 µM)	1 (≈ 1.13 µM)	0.25 (≈ 0.283 µM)	16 (≈ 18.1 µM)	0.5 (≈ 0.565 µM)	64 (≈ 72.3 µM)	2 (≈ 2.26 µM)	1 (≈ 1.13 µM)	0.5 (≈ 0.565 µM)
CC[C@H]1OC(=O)[C@H](C)[C@@H](OC(=O)N2CC(C)(C)C[C@@H]2c2ccc(Cl)cc2Cl)[C@H](C)[C@@H](O[C@@H]2O[C@H](C)C[C@H](N(C)C)[C@H]2O)[C@](C)(OC)C[C@@H](C)C(=O)[C@H](C)[C@H]2NC(=O)O[C@@]21C	0.25 (≈ 0.283 µM)	32 (≈ 36.2 µM)	0.015 (≈ 0.017 µM)	0.25 (≈ 0.283 µM)	8 (≈ 9.04 µM)	0.25 (≈ 0.283 µM)	64 (≈ 72.3 µM)	0.5 (≈ 0.565 µM)	0.03 (≈ 0.0339 µM)	0.25 (≈ 0.283 µM)
CC[C@H]1OC(=O)[C@H](C)[C@@H](OC(=O)N2CC(C)(C)C[C@@H]2c2ccc(Cl)c(Cl)c2)[C@H](C)[C@@H](O[C@@H]2O[C@H](C)C[C@H](N(C)C)[C@H]2O)[C@](C)(OC)C[C@@H](C)C(=O)[C@H](C)[C@H]2NC(=O)O[C@@]21C	0.25 (≈ 0.283 µM)	64 (≈ 72.3 µM)	0.125 (≈ 0.141 µM)	0.25 (≈ 0.283 µM)	64 (≈ 72.3 µM)	0.25 (≈ 0.283 µM)	64 (≈ 72.3 µM)	2 (≈ 2.26 µM)	0.125 (≈ 0.141 µM)	0.25 (≈ 0.283 µM)
CC[C@H]1OC(=O)[C@H](C)[C@@H](OC(=O)N2CC(C)(C)C[C@@H]2c2ccccc2Cl)[C@H](C)[C@@H](O[C@@H]2O[C@H](C)C[C@H](N(C)C)[C@H]2O)[C@](C)(OC)C[C@@H](C)C(=O)[C@H](C)[C@H]2NC(=O)O[C@@]21C	0.25 (≈ 0.294 µM)	64 (≈ 75.3 µM)	0.25 (≈ 0.294 µM)	0.25 (≈ 0.294 µM)	64 (≈ 75.3 µM)	0.25 (≈ 0.294 µM)	64 (≈ 75.3 µM)	2 (≈ 2.35 µM)	0.25 (≈ 0.294 µM)	0.25 (≈ 0.294 µM)
CC[C@H]1OC(=O)[C@H](C)[C@@H](OC(=O)N2CC(C)(C)C[C@@H]2c2cccc(Cl)c2)[C@H](C)[C@@H](O[C@@H]2O[C@H](C)C[C@H](N(C)C)[C@H]2O)[C@](C)(OC)C[C@@H](C)C(=O)[C@H](C)[C@H]2NC(=O)O[C@@]21C	0.25 (≈ 0.294 µM)	> 64	0.03 (≈ 0.0353 µM)	0.125 (≈ 0.147 µM)	64 (≈ 75.3 µM)	0.25 (≈ 0.294 µM)	> 64	0.25 (≈ 0.294 µM)	0.03 (≈ 0.0353 µM)	0.25 (≈ 0.294 µM)
CC[C@H]1OC(=O)[C@H](C)[C@@H](OC(=O)N2CC(C)(C)C[C@@H]2c2cccc3c2OCO3)[C@H](C)[C@@H](O[C@@H]2O[C@H](C)C[C@H](N(C)C)[C@H]2O)[C@](C)(OC)C[C@@H](C)C(=O)[C@H](C)[C@H]2NC(=O)O[C@@]21C	0.125 (≈ 0.145 µM)	64 (≈ 74.4 µM)	0.03 (≈ 0.0349 µM)	0.125 (≈ 0.145 µM)	16 (≈ 18.6 µM)	0.125 (≈ 0.145 µM)	> 64	0.5 (≈ 0.581 µM)	0.03 (≈ 0.0349 µM)	0.125 (≈ 0.145 µM)
CC[C@H]1OC(=O)[C@H](C)[C@@H](OC(=O)N2CC(C)(C)C[C@@H]2c2ccc3c(c2)OCO3)[C@H](C)[C@@H](O[C@@H]2O[C@H](C)C[C@H](N(C)C)[C@H]2O)[C@](C)(OC)C[C@@H](C)C(=O)[C@H](C)[C@H]2NC(=O)O[C@@]21C	0.25 (≈ 0.291 µM)	> 64	0.5 (≈ 0.581 µM)	0.25 (≈ 0.291 µM)	> 64	0.25 (≈ 0.291 µM)	> 64	4 (≈ 4.65 µM)	2 (≈ 2.33 µM)	0.25 (≈ 0.291 µM)
CC[C@H]1OC(=O)[C@H](C)[C@@H](OC(=O)N2CC(C)(C)C[C@@H]2c2cccnc2)[C@H](C)[C@@H](O[C@@H]2O[C@H](C)C[C@H](N(C)C)[C@H]2O)[C@](C)(OC)C[C@@H](C)C(=O)[C@H](C)[C@H]2NC(=O)O[C@@]21C		> 64	0.03 (≈ 0.0367 µM)		16 (≈ 19.6 µM)		> 64	> 64	0.03 (≈ 0.0367 µM)	4 (≈ 4.9 µM)
CC[C@H]1OC(=O)[C@H](C)[C@@H](OC(=O)N2CCC[C@@H]2c2cccnc2)[C@H](C)[C@@H](O[C@@H]2O[C@H](C)C[C@H](N(C)C)[C@H]2O)[C@](C)(OC)C[C@@H](C)C(=O)[C@H](C)[C@H]2NC(=O)O[C@@]21C	16 (≈ 20.3 µM)	> 64	0.5 (≈ 0.634 µM)	0.125 (≈ 0.158 µM)	> 64	0.25 (≈ 0.317 µM)	> 64	16 (≈ 20.3 µM)	0.5 (≈ 0.634 µM)	0.25 (≈ 0.317 µM)
CC[C@H]1OC(=O)[C@H](C)[C@@H](O[C@H]2C[C@@](C)(OC)[C@@H](O)[C@H](C)O2)[C@H](C)[C@@H](O[C@@H]2O[C@H](C)C[C@H](N(C)C)[C@H]2O)[C@](C)(OC)C[C@@H](C)C(=O)[C@H](C)[C@@H](O)[C@]1(C)O [CLARITHROMYCIN]	0.5 (≈ 0.668 µM)	16 (≈ 21.4 µM)	0.125 (≈ 0.167 µM)	0.25 (≈ 0.334 µM)	8 (≈ 10.7 µM)	0.5 (≈ 0.668 µM)	16 (≈ 21.4 µM)	1 (≈ 1.34 µM)	0.25 (≈ 0.334 µM)	0.5 (≈ 0.668 µM)
CC(=O)NC[C@H]1CN(c2ccc(N3CCOCC3)c(F)c2)C(=O)O1 [LINEZOLID]	0.5 (≈ 1.48 µM)	8 (≈ 23.7 µM)	0.125 (≈ 0.371 µM)	0.5 (≈ 1.48 µM)	8 (≈ 23.7 µM)	0.5 (≈ 1.48 µM)	8 (≈ 23.7 µM)	1 (≈ 2.96 µM)	0.125 (≈ 0.371 µM)	0.5 (≈ 1.48 µM)
